Source: PubChem BioAssay AID256 (DTP/NCI, 2004)
Values joined by “and” are separate entries in the source; they are usually repeats but may differ in a detail not shown here. Identical values can stand only once. Inconclusive results and toxic doses are left out. Rule for the calls: active = survival T/C of 150% or more; inactive = T/C below 125% in these data.

System: CD2F1 mice, L1210 leukemia ip, survival T/C
Assay: NCI In Vivo Anticancer Drug Screen. Data for tumor model L1210 Leukemia (intraperitoneal) in CD2F1 (CDF1) mice
Settings: endpoint: mean survival time, higher = longer survival
Outline: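 Vehicle-treated tumor-bearing mice served as controls (C) for compound-treated mice (T). Reported figure is T divided by C.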

[1] = dose: 12.5 mg/kg/injection, schedule: Q01DX009 (ip), vehicle: saline with Tween-80
[2] = dose: 25.0 mg/kg/injection, schedule: Q01DX009 (ip), vehicle: saline with Tween-80
[3] = dose: 50.0 mg/kg/injection, schedule: Q01DX009 (ip), vehicle: saline with Tween-80
[4] = dose: 100.0 mg/kg/injection, schedule: Q04DX003 (ip), vehicle: acetone
[5] = dose: 200.0 mg/kg/injection, schedule: Q04DX003 (ip), vehicle: acetone
[6] = dose: 12.5 mg/kg/injection, schedule: Q01DX005 (ip), vehicle: water
[7] = dose: 25.0 mg/kg/injection, schedule: Q01DX005 (ip), vehicle: water
[8] = dose: 50.0 mg/kg/injection, schedule: Q01DX005 (ip), vehicle: water
[9] = dose: 100.0 mg/kg/injection, schedule: Q01DX005 (ip), vehicle: water
[10] = dose: 200.0 mg/kg/injection, schedule: Q01DX005 (ip), vehicle: water
[11] = dose: 100.0 mg/kg/injection, schedule: Q01DX009 (ip), vehicle: saline
[12] = dose: 200.0 mg/kg/injection, schedule: Q01DX009 (ip), vehicle: saline
[13] = dose: 400.0 mg/kg/injection, schedule: Q01DX009 (ip), vehicle: saline
[14] = dose: 50.0 mg/kg/injection, schedule: Q01DX009 (ip), vehicle: Klucel (hydroxypropylcellulose) (HPC)
[15] = dose: 100.0 mg/kg/injection, schedule: Q01DX001 (ip), vehicle: saline with Tween-80
[16] = dose: 200.0 mg/kg/injection, schedule: Q01DX001 (ip), vehicle: saline with Tween-80
[17] = dose: 400.0 mg/kg/injection, schedule: Q01DX001 (ip), vehicle: saline with Tween-80
[18] = dose: 100.0 mg/kg/injection, schedule: Q04DX002 (ip), vehicle: saline with Tween-80
[19] = dose: 200.0 mg/kg/injection, schedule: Q04DX002 (ip), vehicle: saline with Tween-80
[20] = dose: 400.0 mg/kg/injection, schedule: Q04DX002 (ip), vehicle: saline with Tween-80

Measured: T/C

COc1cc(O)c2c(O)c3c(c4c2c1[C@]1(C4)C(C)=CCCC1(C)C)[C@H](O)[C@@]1(O)CC(=O)C(C(N)=O)=C(O)[C@@]1(O)C3=O
inactive: dose: 1.56 mg/kg/injection, schedule: Q01DX009 (ip), vehicle: saline with Tween-80 96 % of control and 101 % of control | dose: 3.13 mg/kg/injection, schedule: Q01DX009 (ip), vehicle: saline with Tween-80 98 % of control | dose: 6.25 mg/kg/injection, schedule: Q01DX009 (ip), vehicle: saline with Tween-80 104 % of control | [1] 114 % of control | dose: 16.5 mg/kg/injection, schedule: Q04DX003 (ip), vehicle: saline with Tween-80 98 % of control | [2] 119 % of control | dose: 25.0 mg/kg/injection, schedule: Q04DX003 (ip), vehicle: saline with Tween-80 102 % of control | dose: 37.5 mg/kg/injection, schedule: Q04DX003 (ip), vehicle: saline with Tween-80 111 % of control | [3] 90 % of control

COC(=O)CCC(=O)c1ccccc1C
inactive: [4] 100 % of control | [5] 100 % of control

O=C1c2ccccc2C(=O)c2c(NC3CCCCC3)ccc(Nc3ccc(S(=O)(=O)O)cc3)c21
inactive: dose: 75.0 mg/kg/injection, schedule: Q01DX001 (ip), vehicle: saline 100 % of control | dose: 150.0 mg/kg/injection, schedule: Q01DX001 (ip), vehicle: saline 100 % of control | dose: 300.0 mg/kg/injection, schedule: Q01DX001 (ip), vehicle: saline 103 % of control

Cc1cc(C2(c3cc(C)c(O)c(C(=O)O)c3)OS(=O)(=O)c3ccccc32)cc(C(=O)O)c1O
inactive: dose: 100.0 mg/kg/injection, schedule: Q01DX001 (ip), vehicle: saline 104 % of control | dose: 200.0 mg/kg/injection, schedule: Q01DX001 (ip), vehicle: saline 98 % of control | dose: 400.0 mg/kg/injection, schedule: Q01DX001 (ip), vehicle: saline 106 % of control

CCC(C)(S)C(NC(C)=O)C(=O)O (stereo not given)
inactive: dose: 100.0 mg/kg/injection, schedule: Q04DX003 (ip), vehicle: saline with Tween-80 98 % of control | dose: 200.0 mg/kg/injection, schedule: Q04DX003 (ip), vehicle: saline with Tween-80 101 % of control | dose: 400.0 mg/kg/injection, schedule: Q04DX003 (ip), vehicle: saline with Tween-80 104 % of control

OCC1OC(n2cnc3c2NC=N[C@@H]3CO)C(O)C1O (stereo not given in full)
inactive: [6] 100 % of control | [7] 100 % of control | [8] 104 % of control | [9] 109 % of control | [10] 111 % of control

CN(Cc1ccccc1)C1CCC(C(=O)O)CC1 (stereo not given)
inactive: [11] 107 % of control | [12] 107 % of control | [13] 100 % of control

CN1CCN(Cc2cn(C3CC(O)C(CO)O3)c(=O)[nH]c2=O)CC1 (stereo not given)
inactive: [6] 96 % of control | [7] 93 % of control | [8] 91 % of control | [9] 95 % of control | [10] 90 % of control

Cc1[nH]nc(C(N)=O)c1N=NN1CCOCC1
inactive: dose: 75.0 mg/kg/injection, schedule: Q01DX001 (ip), vehicle: other 101 % of control | dose: 150.0 mg/kg/injection, schedule: Q01DX001 (ip), vehicle: other 106 % of control | dose: 300.0 mg/kg/injection, schedule: Q01DX001 (ip), vehicle: other 109 % of control

Cc1nnc(NS(=O)(=O)c2ccc(N=Nc3nc4[nH]c(N)nc(=S)c4[nH]3)cc2)s1
inactive: dose: 12.5 mg/kg/injection, schedule: Q01DX009 (ip), vehicle: Klucel (hydroxypropylcellulose) (HPC) 110 % of control | dose: 25.0 mg/kg/injection, schedule: Q01DX009 (ip), vehicle: Klucel (hydroxypropylcellulose) (HPC) 116 % of control | [14] 122 % of control

CCOC(=O)C(Br)C(Br)c1ccccc1 (stereo not given)
inactive: dose: 50.0 mg/kg/injection, schedule: Q01DX009 (ip), vehicle: saline 108 % of control | [11] 103 % of control | [12] 103 % of control

Cc1ccc(S(=O)(=O)OC2(c3cc(C(F)(F)F)cc(C(F)(F)F)c3)C3CCC2CC3)cc1 (stereo not given)
inactive: dose: 37.5 mg/kg/injection, schedule: Q04DX002 (ip), vehicle: saline with Tween-80 102 % of control | dose: 75.0 mg/kg/injection, schedule: Q04DX002 (ip), vehicle: saline with Tween-80 94 % of control | dose: 150.0 mg/kg/injection, schedule: Q04DX002 (ip), vehicle: saline with Tween-80 98 % of control | dose: 300.0 mg/kg/injection, schedule: Q04DX002 (ip), vehicle: saline with Tween-80 102 % of control

CC(C)C1C=C2CCC3C(C)(C(=O)O)CCCC3(C)C2CC1 (stereo not given)
inactive: [15] 96 % of control | [16] 94 % of control | [17] 92 % of control

S=c1[nH]cc2cnccn12
inactive: [1] 92 % of control and 103 % of control | [2] 97 % of control and 100 % of control | [3] 95 % of control and 105 % of control | dose: 100.0 mg/kg/injection, schedule: Q01DX009 (ip), vehicle: saline with Tween-80 93 % of control and 100 % of control | dose: 200.0 mg/kg/injection, schedule: Q01DX009 (ip), vehicle: saline with Tween-80 104 % of control | dose: 400.0 mg/kg/injection, schedule: Q01DX009 (ip), vehicle: saline with Tween-80 97 % of control

N\C([S-])=N/N=C\C(=N/N=C(\N)[S-])C(O)C(O)C(O)CO.[Ni+2] (stereo not given)
inactive: dose: 80.5 mg/kg/injection, schedule: Q01DX009 (ip), vehicle: saline with Tween-80 102 % of control | dose: 161.0 mg/kg/injection, schedule: Q01DX009 (ip), vehicle: saline with Tween-80 95 % of control

O=C(Cc1ccc([N+](=O)[O-])cc1)Nc1ccc(O)cc1
inactive: [15] 98 % of control | [16] 104 % of control | [17] 101 % of control

O=c1c2ccccc2sc2c1ccc1c2ccc2c(=O)c3ccccc3sc21
inactive: [14] 104 % of control | dose: 100.0 mg/kg/injection, schedule: Q01DX009 (ip), vehicle: Klucel (hydroxypropylcellulose) (HPC) 98 % of control | dose: 200.0 mg/kg/injection, schedule: Q01DX009 (ip), vehicle: Klucel (hydroxypropylcellulose) (HPC) 98 % of control

CCOC(=O)/C(C#N)=C1\CCCc2ccccc21
inactive: [4] 94 % of control | [5] 91 % of control

CS(=O)(=O)/C=C(\I)c1ccccc1
inactive: [11] 98 % of control | dose: 100.0 mg/kg/injection, schedule: Q04DX003 (ip), vehicle: saline 104 % of control | [12] 93 % of control | dose: 200.0 mg/kg/injection, schedule: Q04DX003 (ip), vehicle: saline 106 % of control | [13] 95 % of control | dose: 400.0 mg/kg/injection, schedule: Q04DX003 (ip), vehicle: saline 98 % of control

COC(=O)C(NC(=O)Cc1ccccc1)C(C)(C)S (stereo not given)
inactive: [18] 102 % of control | [19] 102 % of control | [20] 102 % of control

O=C(NO)c1cc(Br)cc(Br)c1O
inactive: [18] 96 % of control | [19] 92 % of control | [20] 103 % of control

O=[N+]([O-])O.[Cr+3].[NH2-].[NH2-].[NH2-].[NH2-].[NH2-].[NH2-]
inactive: dose: 6.25 mg/kg/injection, schedule: Q01DX009 (ip), vehicle: saline sonified 88 % of control | dose: 12.5 mg/kg/injection, schedule: Q01DX009 (ip), vehicle: saline sonified 97 % of control | dose: 25.0 mg/kg/injection, schedule: Q01DX009 (ip), vehicle: saline sonified 90 % of control
